The data set can be described thus: Thermal decomposition onset (T5% onset) by TGA.
The mark [1] stands for this setting: TGA/DSC, 25° C. to 600° C. with 5° C./min under nitrogen, cetylpyridinium salicylate-salicylic acid co-ionic liquids.
[2] abbreviates: TGA/DSC, 25° C. to 600° C. with 5° C./min under nitrogen, lidocaine salicylate co-ionic liquids.
Where [3] appears, read: TGA/DSC, 25° C. to 600° C. with 5° C./min under nitrogen, tetrabutylphosphonium lactate-lactic acid co-ionic liquids.
Setting [4] is: TGA/DSC, 25° C. to 600° C. with 5° C./min under nitrogen, ephedrinium clofibrate co-ionic liquids prepared by melting.

The record followed here is patent US9278134B2, “Dual functioning ionic liquids and salts thereof” (priority 2008, dated 2016).

Read-outs that look alike come from different tables or passages of the source.

For the compound “Cetylpyridinium Salicylate-cinnamate [CetPySalCinnH]”, the T5%onset came out at 162 °C.

As to “Triethanolammonium Ibuprofenate [Example 64]”, the T5%onset stood at 163 °C.

`CCCCC(CC)COC(=O)CC(C(=O)OCC(CC)CCCC)S(=O)(=O)[O-].CCCC[P+](CCO)(CCCC)CCCC` (stereo not shown) [Example 66, Tributylhydroxyethylphosphonium Docusate] registered a T5%onset of 280 °C.

Compound `CCCCCCCCCCCCCCCC[n+]1ccccc1` [CetPy:Sal 1:1, Cetylpyridinium Salicylate] registered a T5%onset of 206 °C. In addition, under setting [1], the T5%onset came to 206 °C.

Regarding `CCN(CC)CC(=O)Nc1c(C)cccc1C.O=C(O)c1ccccc1O` [Lid:Sal 1:1, Lidocainium Salicylate], the T5%onset was 161 °C. Under setting [2], the “Tonset 5%” value amounted to 161 °C.

Regarding `CCCCC(CC)COC(=O)CC(C(=O)OCC(CC)CCCC)S(=O)(=O)O.CCN(CC)CCNC(=O)c1ccc(N)cc1` (stereo not shown) [Example 63, Procainamide Docusate], the T5%onset turned out to be 231 °C.

For the compound `CCCC[P+](CCCC)(CCCC)CCCC` [P(Bu)4Lac 1:1, tetrabutylphosphonium lactate], the T5%onset under setting [3] is 262.

`CCCC[P+](CCCC)(CCCC)CC(=O)Oc1ccc(NC(C)=O)cc1` [Example 34, (2-(4-acetamidophenoxy)-2-oxoethyl)tributylphosphonium Chloride] yielded a T5%onset of 197 °C.

Turning to `CCCC[P+](CCCC)(CCCC)CCCC` [P(Bu)4Lac 1:2, Tetrabutylphosphonium Lactate-lactic Acid], under setting [3], the T5%onset is recorded as 215.

`CC(C)Cc1ccc(C(C)C(=O)[O-])cc1.CCCC[P+](CCCC)(CCCC)CCCC` [P(Bu)4Ibu 1:1, Tetrabutylphosphonium Ibuprofenate] yielded a T5%onset of 234 °C. The T5%onset (TGA/DSC, 25° C. to 600° C. with 5° C./min under nitrogen, tetrabutylphosphonium ibuprofenate-ibuprofenic co-ionic liquids) was 234 °C.

Take Lidocaine Salicylates [Lid:Sal 2:1]: the “Tonset 5%” value under setting [2] came out at 154 °C.

As to `CC(CN1c2ccccc2Sc2ccccc21)N(C)C.CCCCC(CC)COC(=O)CC(C(=O)OCC(CC)CCCC)S(=O)(=O)O` (stereo not shown) [Example 60, Promethazine Docusate], the T5%onset is 246 °C.

In turn, `C[N+](C)(C)CCO.O=C([O-])c1ccccc1O` [Cho:Sal 1:1, choline salicylate] showed a T5%onset (TGA/DSC, 25° C. to 600° C. with 5° C./min under nitrogen, choline salicylate-salicylic acid co-ionic liquids) of 203 °C.

Compound `CCCCC(CC)COC(=O)CC(C(=O)OCC(CC)CCCC)S(=O)(=O)O.CN[C@@H](C)[C@H](O)c1ccccc1` (stereo not shown) [Example 59, Ephedrinium Docusate] yielded a T5%onset of 238 °C.

On to Lidocaine Salicylates [Lid:Sal 3:1], for which, under setting [2], the “Tonset 5%” value came out at 161 °C.

`CCCCC(CC)COC(=O)CC(C(=O)OCC(CC)CCCC)S(=O)(=O)O.COc1cccc(C2(O)CCCCC2CN(C)C)c1` (stereo not shown) [Example 51, Tramadolium Docusate]: the T5%onset came to 226 °C.

As to `COc1cccc(C2(O)CCCCC2CN(C)C)c1.O=C(O)c1ccccc1O` (stereo not shown) [Example 47, Tramadolium Salicylate], the T5%onset was 220 °C.

For Lidocaine Salicylates [Lid:Sal 1:2.5], the “Tonset 5%” value under setting [2] came out at 132 °C.

`CC(=O)Nc1ccc(OC(=O)C[N+]2(C)CCCC2)cc1` [Example 36, 1-(2-(4-acetamidophenoxy)-2-oxoethyl)-1-methylpyrrolidinium Docusate] showed a T5%onset of 233 °C.

For the compound `CC(C)=CCC/C(C)=C/COC(=O)Cn1cc[n+](C)c1` [Example 43, (E)-1-(2-(3,7-dimethylocta-2,6-dienyloxy)-2-oxoethyl)-3-methyl-1H-imidazol-3-ium Chloride], the T5%onset came out at 125 °C.

Take Lidocaine Salicylates [Lid:Sal 2.5:1]: under setting [2], the “Tonset 5%” value is 137 °C.

For Lidocaine Salicylates [Lid:Sal 1.5:1], the “Tonset 5%” value under setting [2] is 169 °C.

For the compound `CCN(CC)CC(=O)Nc1c(C)cccc1C` [Lid, lidocaine, reference compound], under setting [2], the “Tonset 5%” value is 152 °C.

As for `CC(C)(Oc1ccc(Cl)cc1)C(=O)O.CN[C@@H](C)[C@H](O)c1ccccc1.CN[C@@H](C)[C@H](O)c1ccccc1` [Eph:Clofib 2:1, Ephedrinium Clofibrate], the “Tonset 5%” value under setting [4] turned out to be 135 °C.

The compound `CC(CN1c2ccccc2Sc2ccccc21)N(C)C.CN[C@@H](C)[C@H](O)c1ccccc1.O=C(O)c1ccccc1O` (stereo not shown) [Example 29, Promethazine-ephedrinium Salicylate] had a T5%onset of 151 °C.

On to Ephedrinium Clofibrate [Eph:Clofib 1:2], for which the “Tonset 5%” value under setting [4] was found to be 182 °C.

`CC(CN1c2ccccc2Sc2ccccc21)N(C)C.CCCCC(CC)COC(=O)CC(C(=O)OCC(CC)CCCC)S(=O)(=O)O.CN[C@@H](C)[C@H](O)c1ccccc1` (stereo not shown) [Example 27, Promethazine-ephedrinium Docusate 1:1:1]: the T5%onset stood at 164 °C.

`CC(C)(Oc1ccc(Cl)cc1)C(=O)O.CN[C@@H](C)[C@H](O)c1ccccc1` [Eph:Clofib 1:1, Ephedrinium Clofibrate]: the T5%onset amounted to 166 °C. Also, the “Tonset 5%” value under setting [4] turned out to be 169 °C.

As for Lidocaine Salicylates [Lid:Sal 1:3], the “Tonset 5%” value under setting [2] turned out to be 128 °C.

`CC(=O)Nc1ccc(OC(=O)C[n+]2ccccc2)cc1` [Example 33, 1-(2-(4-acetamidophenoxy)-2-oxoethyl)pyridinium Chloride] had a T5%onset of 198 °C.

As for “Cetylpyridinium Salicylate-salicylic Acid [CetPy:Sal 1:3]”, the T5%onset under setting [1] is 162 °C.

Consider `CCN(CC)CC(=O)Nc1c(C)cccc1C.CN[C@@H](C)[C@H](O)c1ccccc1.O=C(O)c1ccccc1O` [Example 23, Ephedrinium-lidocaine Salicylate], for which the T5%onset was determined as 149 °C.

`CC(C)Cc1ccc(C(C)C(=O)O)cc1.CCN(CC)CCNC(=O)c1ccc(N)cc1` [Example 62, Procainamide Ibuprofenate]: the T5%onset stood at 182 °C.

For `COc1cccc(C2(O)CCCCC2CN(C)C)c1.Cc1ccc(Cl)c(Nc2ccccc2C(=O)O)c1Cl` (stereo not shown) [Example 50, Tramadolium Meclofenamate], the T5%onset came out at 172 °C.

As to `CC(C)Cc1ccc(C(C)C(=O)O)cc1.COc1cccc(C2(O)CCCCC2CN(C)C)c1` (racemic) [Example 48, Tramadolium rac-ibuprofenate], the T5%onset came out at 175 °C.

As for `CC(=O)Nc1ccc(OC(=O)C[n+]2ccccc2)cc1` [Example 37, 1-(2-(4-acetamidophenoxy)-2-oxoethyl)pyridinium Docusate], the T5%onset was 238 °C.

As for `O=C(O)c1ccccc1O` [Salicylic acid, reference compound], the “Tonset 5%” value under setting [2] turned out to be 134 °C. Moreover, where the note is “TGA/DSC, 25° C. to 600° C. with 5° C./min under nitrogen, tetrabutylphosphonium salicylate-salicylic acid co-ionic liquids”, the T5%onset stood at 136 °C.

Consider `CC(C)Cc1ccc(C(C)C(=O)O)cc1.CN[C@@H](C)[C@H](O)c1ccccc1` (stereo not shown) [Example 57, Ephedrinium Ibuprofenate], for which the T5%onset was 238 °C.

In the case of `CC(=O)Nc1ccc(OC(=O)C[N+]2(C)CCCC2)cc1` [Example 32, 1-(2-(4-acetamidophenoxy)-2-oxoethyl)-1-methylpyrrolidinium Chloride], the T5%onset came to 197 °C.

On to “Cetylpyridinium Salicylate-salicylic Acid [CetPy:Sal 1:2]”, for which the T5%onset under setting [1] turned out to be 184 °C.

In the case of Lidocaine Salicylates [Lid:Sal 1:2], under setting [2], the “Tonset 5%” value was determined as 138 °C.
